Source: patent US20030220232A1, “Peptide and nucleic acid coding therefor for the detection, diagnosis and therapy of diseases of the nervous system” (priority 2000, published 2003)

Legend:
[1] = biological target: sodium ion channels of differentiated NH15-CA2 neuroblastoma-x-glioma cells; test: cell-based or functional assay
sodium ion channels = test: Neuroinhibitory assay: inhibition of sodium currents, whole cell mode, differentiated NH15-CA2 neuroblastoma-x-glioma cells; format: cell-based; conditions: for concentration of solution with corresponding electrophysiological action on neuronal sodium channels: 10 μM peptide solution corresponds to 50 μM lidocaine solution
From the text: “Neuroinhibitory activity” here means the capacity of a substance for blocking sodium ion channels. Neuroinhibitory activity can be measured in this connection by the inhibition of sodium ion currents through potential-dependent sodium ion channels. (Review article by Lehmann-Horn et al. in Rev. Physiol. Biochem. Pharmacol. 128; (1996), 198-268). The experimental conditions for measurement of the neuroinhibitory activity are described, for example, in Brinkmeier et al., Muscle and Nerve 19 (1996), 54-62. Neuroinhibitory activity can be determined using differentiated NH15-CA2 [neuroblastoma×glioma] cells (Hamprecht et al., Meth. Enzymol. 109 (1985), 316-41; Brinkmeier et al., Muscle Nerve 19 (1996), 54-62).
The neuroinhibitory activity was determined by the inhibition of sodium ion channels using differentiated NH15-CA2 neuroblastoma-x-glioma cells. The culture conditions and morphological and physiological parameters of the differentiation of these cells are known (Hamprecht et al., Meth. Enzymol. 109 (1985), 316-41). For the assay, the cells were transferred into a hydrophobic test dish which was filled with standard external liquid (140 mM NaCl; 3.5 mM KCl; 1.0 mM CaCl2; 1.0 mM MgCl2; 2 mM HEPES, pH 7.4). The dish was on the platen of an inverted microscope for observation of the cells, while these were treated with pipettes which were filled with internal solution (140 mM CsCl; 1.4 mM MgCl2; 10 mM EGTA and 10 mM HEPES (peak resistances: […])). The sodium currents were induced and recorded in the whole cell mode. The determination of the maximum current amplitudes as a response to repetitive rectangular pulses from −85 to −20 mV lasting 8 ms before, during and after administration of the test solution can be used as a rapid test for the neuroinhibitory activity. The decrease in the current was recorded in three to five cells and the means were determined. An extended test consisted of determination of the “steady-state” activation and inactivation parameters of sodium ion channels. To determine the dependence of the activation on potential, a cyclic pulse program was used, which comprised pre-pulses which depolarized the cells from an HP (holding potential) of −85 mV to −135 mV over 100 ms, and subsequent variable test pulses which depolarized for 8 ms in 4 mV steps from −65 to +31 mV. For the dependence of the inactivation on potential, a similar program was used, which comprised a fixed 100 ms conditioning pulse at −135 mV, a variable 32 ms prepulse in the course of −135 to −19 mV in 4 mV steps and a constant test pulse which depolarized the cells to −20 mV. The size of the left shift of the h curve in the presence of test solutions was used as a measured of the inhibition of the sodium ion channels.
The neuroinhibitory activity of the synthetic peptide with the sequence (SEQ ID NO:1) was determined by the inhibition of the sodium currents by ion channels which were induced by 1 Hz rectangular pulses from […]. […] In each case the mean with the standard deviation is shown.

synthetic peptide Gln-Tyr-Asn-Ala-Asp (SEQ ID NO: 1)
half-maximum inhibition of the sodium ion currents [1]: < 10 µM
saturation of the peptide effect [1]: 100 µM

CCN(CC)CC(=O)Nc1c(C)cccc1C [lidocaine, reference compound]
concentration of solution with corresponding electrophysiological action on neuronal sodium channels (sodium ion channels): 50 μM

Gln-Tyr-Asn-Ala-Asp (QYNAD) [SEQ ID NO:1]
concentration at saturation of the neuroinhibitory effect (sodium ion channels): 100 µM
neuroinhibitory activity compared with lidocaine (sodium ion channels): significantly higher
neuroinhibitory activity in respect of sodium ion channels (in words) (sodium ion channels): blocks their sodium currents
concentration of solution with corresponding electrophysiological action on neuronal sodium channels (sodium ion channels): 10 μM
peptide-mediated blocking of the ion channel (time course) (sodium ion channels; NH15-CA2 cells): rapid and reversible
IC50 (sodium ion channels; NH15-CA2 cells, currents induced by 1 Hz rectangular pulses, seven measurements, read-out: peptide concentration giving half-maximum inhibition of the sodium ion currents): < 10 µM

Gln-Tyr-Asn-Asp-Ala (QYNDA) [SEQ ID NO:2]
neuroinhibitory activity in respect of sodium ion channels (in words) (sodium ion channels): does not have a neuroinhibitory activity
